Measured values taken from paper PMC3176174 (OncoTargets and therapy, 2011).
*1 amine or outer side, *2 acyl side, *3 side chain or, on linkers, in order; H or OH if unused. Where a SMILES comes first, the peptide text is derived from it. Bridges are numbered along the chain shown (N, C = ends). Roman numbers before positions name the chains, in order. [ ]: non-standard residue; d: D form. Actinocin(9to1) = Cc1c2oc3c(C)ccc(C(=O)[*:1])c3nc-2c(C(=O)[*:2])c(N)c1=O; NMeV = CN[C@H](C(=O)O)C(C)C; Sar = CNCC(=O)O

Tests used:
Format in all cases: cell-based, human
SEM cell line = assay: cells
MOLT-3 cell line = assay: cells
B1 cell line = assay: cells
[1] = system: MLL-rearranged leukemia cell lines (SEM, B1, KOPN8, MOLT-3, TIB-202); assay: In-vitro cytotoxicity across the panel of leukemia cell lines; settings: Homo sapiens, all five MLL-rearranged cell lines
TIB-202 cell line = assay: cells
KOPN8 cell line = assay: cells

Molecule: Cc1c2oc3c(C)ccc(C(=O)N[C@@H]4C(=O)N[C@H](C(C)C)C(=O)N5CCC[C@H]5C(=O)N(C)CC(=O)N(C)[C@@H](C(C)C)C(=O)O[C@@H]4C)c3nc-2c(C(=O)N[C@@H]2C(=O)N[C@H](C(C)C)C(=O)N3CCC[C@H]3C(=O)N(C)CC(=O)N(C)[C@@H](C(C)C)C(=O)O[C@@H]2C)c(N)c1=O [Dactinomycin] (I: T[dV]P[Sar][NMeV] / II: T[dV]P[Sar][NMeV]; ester I:1-I:C, II:1-II:C; linker I:N-II:N via Actinocin(9to1))
- IC50 (SEM cell line; Homo sapiens, 96 h): < 0.01 µM
- IC50 (MOLT-3 cell line; Homo sapiens, MOLT-3, 96 h): < 0.01 µM
- IC50 (B1 cell line; Homo sapiens, 96 h): < 0.01 µM
- IC50 [1]: < 1 µM
- IC50 (TIB-202 cell line; Homo sapiens, 96 h): < 1e-05 µM

Molecule: N[C@@H](Cc1ccc(N(CCCl)CCCl)cc1)C(=O)O [Melphalan]
- IC50 (SEM cell line; Homo sapiens, 96 h): 5.8 µM
- IC50 (MOLT-3 cell line; Homo sapiens, MOLT-3, 96 h): 1.03 µM
- IC50 (KOPN8 cell line; Homo sapiens, KOPN-8, 96 h): 0.425 µM
- IC50 (B1 cell line; Homo sapiens, 96 h): 4.08 µM
- IC50 (TIB-202 cell line; Homo sapiens, 96 h): 2.2 µM

Molecule: S=c1[nH]cnc2nc[nH]c12 [Mercaptopurine]
- IC50 (SEM cell line; Homo sapiens, 96 h): > 10 µM
- IC50 (MOLT-3 cell line; Homo sapiens, MOLT-3, 96 h): > 10 µM
- IC50 (KOPN8 cell line; Homo sapiens, KOPN-8, 96 h): > 5 µM
- IC50 (B1 cell line; Homo sapiens, 96 h): > 10 µM
- IC50 (TIB-202 cell line; Homo sapiens, 96 h): > 5 µM

Molecule: COc1c2occc2cc2ccc(=O)oc12 [Methoxsalen]
- IC50 (SEM cell line; Homo sapiens, 96 h): > 10 µM
- IC50 (MOLT-3 cell line; Homo sapiens, MOLT-3, 96 h): > 10 µM
- IC50 (KOPN8 cell line; Homo sapiens, KOPN-8, 96 h): > 5 µM
- IC50 (B1 cell line; Homo sapiens, 96 h): > 10 µM
- IC50 (TIB-202 cell line; Homo sapiens, 96 h): > 5 µM

Molecule: Clc1ccc(C(c2ccccc2Cl)C(Cl)Cl)cc1 (centres unmarked) [Mitotane]
- IC50 (SEM cell line; Homo sapiens, 96 h): > 10 µM
- IC50 (MOLT-3 cell line; Homo sapiens, MOLT-3, 96 h): > 10 µM
- IC50 (KOPN8 cell line; Homo sapiens, KOPN-8, 96 h): > 5 µM
- IC50 (B1 cell line; Homo sapiens, 96 h): > 10 µM
- IC50 (TIB-202 cell line; Homo sapiens, 96 h): > 5 µM

Molecule: COc1nc(N)nc2c1ncn2[C@@H]1O[C@H](CO)[C@@H](O)[C@@H]1O [Nelarabine]
- IC50 (SEM cell line; Homo sapiens, 96 h): > 10 µM
- IC50 (MOLT-3 cell line; Homo sapiens, MOLT-3, 96 h): 1.23 µM
- IC50 (KOPN8 cell line; Homo sapiens, KOPN-8, 96 h): > 10 µM
- IC50 (B1 cell line; Homo sapiens, 96 h): > 10 µM
- IC50 (TIB-202 cell line; Homo sapiens, 96 h): > 10 µM

Molecule: Cc1cn(-c2cc(NC(=O)c3ccc(C)c(Nc4nccc(-c5cccnc5)n4)c3)cc(C(F)(F)F)c2)cn1 [Nilotinib]
- IC50 (SEM cell line; Homo sapiens, 96 h): > 10 µM
- IC50 (MOLT-3 cell line; Homo sapiens, MOLT-3, 96 h): > 10 µM
- IC50 (KOPN8 cell line; Homo sapiens, KOPN-8, 96 h): > 10 µM
- IC50 (B1 cell line; Homo sapiens, 96 h): < 0.01 µM
- IC50 (TIB-202 cell line; Homo sapiens, 96 h): < 0.01 µM

Molecule: O=C1[O][Pt]2([NH][C@@H]3CCCC[C@H]3[NH]2)[O]C1=O [Oxaliplatin]
- IC50 (SEM cell line; Table S1, SEM, 96 hours): 5.67 µM
- IC50 (MOLT-3 cell line; Table S1, MOLT-3, 96 hours): 0.969 µM
- IC50 (KOPN8 cell line; Table S1, KOPN8, 96 hours): 0.309 µM
- IC50 (B1 cell line; Table S1, B1, 96 hours): 3.68 µM
- IC50 (TIB-202 cell line; Table S1, TIB-202, 96 hours): 6.2 µM

Molecule: OC[C@H]1O[C@@H](n2cnc3c2NC=NC[C@H]3O)C[C@@H]1O [Pentostatin]
- IC50 (SEM cell line; Homo sapiens, 96 h): > 10 µM
- IC50 (MOLT-3 cell line; Homo sapiens, MOLT-3, 96 h): > 10 µM
- IC50 (KOPN8 cell line; Homo sapiens, KOPN-8, 96 h): > 5 µM
- IC50 (B1 cell line; Homo sapiens, 96 h): > 10 µM
- IC50 (TIB-202 cell line; Homo sapiens, 96 h): > 5 µM

Molecule: O=C(CCBr)N1CCN(C(=O)CCBr)CC1 [Pipobroman]
- IC50 (SEM cell line; Homo sapiens, 96 h): 4.32 µM
- IC50 (MOLT-3 cell line; Homo sapiens, MOLT-3, 96 h): 6.35 µM
- IC50 (KOPN8 cell line; Homo sapiens, KOPN-8, 96 h): 0.389 µM
- IC50 (B1 cell line; Homo sapiens, 96 h): 2.63 µM
- IC50 (TIB-202 cell line; Homo sapiens, 96 h): 4.34 µM

Molecule: CNNCc1ccc(C(=O)NC(C)C)cc1 [Procarbazine]
- IC50 (SEM cell line; Homo sapiens, 96 h): > 10 µM
- IC50 (MOLT-3 cell line; Homo sapiens, MOLT-3, 96 h): > 10 µM
- IC50 (KOPN8 cell line; Homo sapiens, KOPN-8, 96 h): > 5 µM
- IC50 (B1 cell line; Homo sapiens, 96 h): > 10 µM
- IC50 (TIB-202 cell line; Homo sapiens, 96 h): > 5 µM

Molecule: O=C(c1ccc(OCCN2CCCCC2)cc1)c1c(-c2ccc(O)cc2)sc2cc(O)ccc12 [Raloxifene]
- IC50 (SEM cell line; Homo sapiens, 96 h): 4.44 µM
- IC50 (MOLT-3 cell line; Homo sapiens, MOLT-3, 96 h): > 10 µM
- IC50 (KOPN8 cell line; Homo sapiens, KOPN-8, 96 h): 8.3 µM
- IC50 (B1 cell line; Homo sapiens, 96 h): > 10 µM
- IC50 (TIB-202 cell line; Homo sapiens, 96 h): > 10 µM

Molecule: CO[C@H]1C[C@@H]2CC[C@@H](C)[C@@](O)(O2)C(=O)C(=O)N2CCCC[C@H]2C(=O)O[C@H]([C@H](C)C[C@@H]2CC[C@@H](O)[C@H](OC)C2)CC(=O)[C@H](C)/C=C(\C)[C@@H](O)[C@@H](OC)C(=O)[C@H](C)C[C@H](C)/C=C/C=C/C=C/1C [Rapamycin]
- IC50 (SEM cell line; Homo sapiens, 96 h): < 0.01 µM
- IC50 (MOLT-3 cell line; Homo sapiens, MOLT-3, 96 h): < 0.01 µM
- IC50 (KOPN8 cell line; Homo sapiens, KOPN-8, 96 h): < 0.01 µM
- IC50 (B1 cell line; Homo sapiens, 96 h): 0.00804 µM
- IC50 (TIB-202 cell line; Homo sapiens, 96 h): 7.05 µM

Molecule: CNC(=O)c1cc(Oc2ccc(NC(=O)Nc3ccc(Cl)c(C(F)(F)F)c3)cc2)ccn1 [Sorafenib]
- IC50 (SEM cell line; Homo sapiens, 96 h): 1.54 µM
- IC50 (MOLT-3 cell line; Homo sapiens, MOLT-3, 96 h): 9.63 µM
- IC50 (KOPN8 cell line; Homo sapiens, KOPN-8, 96 h): 3.86 µM
- IC50 (B1 cell line; Homo sapiens, 96 h): 5.66 µM
- IC50 (TIB-202 cell line; Homo sapiens, 96 h): 5.95 µM

Molecule: CN(N=O)C(=O)N[C@@H](C=O)[C@@H](O)[C@H](O)[C@H](O)CO [Streptozocin]
- IC50 (SEM cell line; Homo sapiens, 96 h): > 10 µM
- IC50 (MOLT-3 cell line; Homo sapiens, MOLT-3, 96 h): > 10 µM
- IC50 (KOPN8 cell line; Homo sapiens, KOPN-8, 96 h): > 5 µM
- IC50 (B1 cell line; Homo sapiens, 96 h): > 10 µM
- IC50 (TIB-202 cell line; Homo sapiens, 96 h): > 5 µM

Molecule: CCN(CC)CCNC(=O)c1c(C)[nH]c(/C=C2\C(=O)Nc3ccc(F)cc32)c1C [Sunitinib]
- IC50 (SEM cell line; Homo sapiens, 96 h): 0.135 µM
- IC50 (MOLT-3 cell line; Homo sapiens, MOLT-3, 96 h): > 10 µM
- IC50 (KOPN8 cell line; Homo sapiens, KOPN-8, 96 h): 3.3 µM
- IC50 (B1 cell line; Homo sapiens, 96 h): 5.36 µM
- IC50 (TIB-202 cell line; Homo sapiens, 96 h): 3.29 µM

Molecule: Cn1nnc2c(C(N)=O)ncn2c1=O [Temozolomide]
- IC50 (SEM cell line; Homo sapiens, 96 h): 9.12 µM
- IC50 (MOLT-3 cell line; Homo sapiens, MOLT-3, 96 h): > 10 µM
- IC50 (KOPN8 cell line; Homo sapiens, KOPN-8, 96 h): > 5 µM
- IC50 (B1 cell line; Homo sapiens, 96 h): > 10 µM
- IC50 (TIB-202 cell line; Homo sapiens, 96 h): > 5 µM

Molecule: O=C1CCC(N2C(=O)c3ccccc3C2=O)C(=O)N1 (centres unmarked) [Thalidomide]
- IC50 (SEM cell line; Homo sapiens, 96 h): > 10 µM
- IC50 (MOLT-3 cell line; Homo sapiens, MOLT-3, 96 h): > 10 µM
- IC50 (KOPN8 cell line; Homo sapiens, KOPN-8, 96 h): > 5 µM
- IC50 (B1 cell line; Homo sapiens, 96 h): > 10 µM
- IC50 (TIB-202 cell line; Homo sapiens, 96 h): > 5 µM

Molecule: Nc1nc2nc[nH]c2c(=S)[nH]1 [Thioguanine]
- IC50 (SEM cell line; Homo sapiens, 96 h): 0.938 µM
- IC50 (MOLT-3 cell line; Homo sapiens, MOLT-3, 96 h): 7.05 µM
- IC50 (KOPN8 cell line; Homo sapiens, KOPN-8, 96 h): 4.5 µM
- IC50 (B1 cell line; Homo sapiens, 96 h): 8.77 µM
- IC50 (TIB-202 cell line; Homo sapiens, 96 h): 5.2 µM

Molecule: S=P(N1CC1)(N1CC1)N1CC1 [Thiotepa]
- IC50 (SEM cell line; Homo sapiens, 96 h): 3.78 µM
- IC50 (MOLT-3 cell line; Homo sapiens, MOLT-3, 96 h): 3.01 µM
- IC50 (KOPN8 cell line; Homo sapiens, KOPN-8, 96 h): 1.96 µM
- IC50 (B1 cell line; Homo sapiens, 96 h): 6.38 µM
- IC50 (TIB-202 cell line; Homo sapiens, 96 h): 5 µM

Molecule: CC1=C(/C=C/C(C)=C/C=C/C(C)=C/C(=O)O)C(C)(C)CCC1 [Tretinoin]
- IC50 (SEM cell line; Homo sapiens, 96 h): > 10 µM
- IC50 (MOLT-3 cell line; Homo sapiens, MOLT-3, 96 h): > 10 µM
- IC50 (KOPN8 cell line; Homo sapiens, KOPN-8, 96 h): > 5 µM
- IC50 (B1 cell line; Homo sapiens, 96 h): > 10 µM
- IC50 (TIB-202 cell line; Homo sapiens, 96 h): > 5 µM

Molecule: Oc1ncc(N(CCCl)CCCl)c(O)n1 [Uracil mustard]
- IC50 (SEM cell line; Homo sapiens, 96 h): 4.85 µM
- IC50 (MOLT-3 cell line; Homo sapiens, MOLT-3, 96 h): 9.66 µM
- IC50 (KOPN8 cell line; Homo sapiens, KOPN-8, 96 h): 2.22 µM
- IC50 (B1 cell line; Homo sapiens, 96 h): 3.65 µM
- IC50 (TIB-202 cell line; Homo sapiens, 96 h): 2.7 µM

Molecule: O=P(O)(O)C(O)(Cn1ccnc1)P(=O)(O)O [Zoledronic acid]
- IC50 (SEM cell line; Homo sapiens, 96 h): > 10 µM
- IC50 (MOLT-3 cell line; Homo sapiens, MOLT-3, 96 h): > 10 µM
- IC50 (KOPN8 cell line; Homo sapiens, KOPN-8, 96 h): > 10 µM
- IC50 (B1 cell line; Homo sapiens, 96 h): > 10 µM
- IC50 (TIB-202 cell line; Homo sapiens, 96 h): > 10 µM

Molecule: Bleomycin
- IC50 (SEM cell line; Table S1, SEM, 96 hours): < 0.01 µM
- IC50 (MOLT-3 cell line; Table S1, MOLT-3, 96 hours): 8.42 µM
- IC50 (KOPN8 cell line; Table S1, KOPN8, 96 hours): 0.108 µM
- IC50 (B1 cell line; Table S1, B1, 96 hours): 2.92 µM
- IC50 (TIB-202 cell line; Table S1, TIB-202, 96 hours): 1.07 µM

Molecule: Carboplatin
- IC50 (SEM cell line; Table S1, SEM, 96 hours): > 10 µM
- IC50 (MOLT-3 cell line; Table S1, MOLT-3, 96 hours): 6.97 µM
- IC50 (KOPN8 cell line; Table S1, KOPN8, 96 hours): 5.14 µM
- IC50 (B1 cell line; Table S1, B1, 96 hours): 7.73 µM
- IC50 (TIB-202 cell line; Table S1, TIB-202, 96 hours): 7.64 µM
